The text below walks through data of ChEMBL document CHEMBL1148559, “Synthesis and monoamine transporter affinity of new 2beta-carbomethoxy-3beta-[aryl or heteroaryl]phenyltropanes” (Bioorg Med Chem Lett, 2006).

Experiment [1] addresses Norepinephrine transporter (Rattus norvegicus, UniProt Q9WTR4). Put plainly: Displacement of [3H]nisoxetine from NET in rat […]. The class given is tissue-based.
Experiment [2] is described as follows: Selectivity for SERT over DAT. The settings on record: Rattus norvegicus. The experiment is classed as protein assay.
Experiment [3] addresses Sodium-dependent serotonin transporter (Rattus norvegicus, UniProt P31652). Kind of experiment: Displacement of [3H]paroxetine from SERT in rat frontoparietal cerebral cortex. The class given is tissue-based. (In general: Displacement assays read how much labelled ligand stays bound in the presence of the test substance.)
Experiment [4] addresses Sodium-dependent dopamine transporter (Rattus norvegicus, UniProt P23977). Kind of experiment: Displacement of [3H]GBR-12935 from DAT in rat […]. The experiment is classed as tissue-based.
Experiment [5] has as its target Monoamine transporters; Norepinephrine & serotonin (Rattus norvegicus) (UniProt P31652+Q9WTR4). Kind of experiment: Selectivity for SERT over NET. The experiment is classed as protein assay.

A value given as a limit tells only on which side of the number the result lay.

Sequence of Sodium-dependent dopamine transporter (P23977 whole entry): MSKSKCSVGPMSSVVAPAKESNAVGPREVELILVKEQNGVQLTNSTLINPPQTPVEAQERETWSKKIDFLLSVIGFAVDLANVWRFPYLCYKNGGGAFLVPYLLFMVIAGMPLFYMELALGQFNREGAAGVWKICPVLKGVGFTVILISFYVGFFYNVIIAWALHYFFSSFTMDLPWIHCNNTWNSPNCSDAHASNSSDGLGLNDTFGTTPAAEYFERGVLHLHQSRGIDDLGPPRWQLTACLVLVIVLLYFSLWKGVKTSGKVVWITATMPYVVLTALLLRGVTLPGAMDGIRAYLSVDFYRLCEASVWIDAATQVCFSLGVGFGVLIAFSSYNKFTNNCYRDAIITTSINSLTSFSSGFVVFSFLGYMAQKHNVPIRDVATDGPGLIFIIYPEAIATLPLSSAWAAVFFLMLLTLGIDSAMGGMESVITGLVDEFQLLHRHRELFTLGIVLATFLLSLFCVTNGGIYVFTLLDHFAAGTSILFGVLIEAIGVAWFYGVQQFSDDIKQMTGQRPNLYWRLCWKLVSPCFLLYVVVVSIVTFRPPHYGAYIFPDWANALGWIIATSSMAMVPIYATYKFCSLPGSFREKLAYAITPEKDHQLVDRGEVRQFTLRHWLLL
Sequence of Norepinephrine transporter (Q9WTR4 whole entry): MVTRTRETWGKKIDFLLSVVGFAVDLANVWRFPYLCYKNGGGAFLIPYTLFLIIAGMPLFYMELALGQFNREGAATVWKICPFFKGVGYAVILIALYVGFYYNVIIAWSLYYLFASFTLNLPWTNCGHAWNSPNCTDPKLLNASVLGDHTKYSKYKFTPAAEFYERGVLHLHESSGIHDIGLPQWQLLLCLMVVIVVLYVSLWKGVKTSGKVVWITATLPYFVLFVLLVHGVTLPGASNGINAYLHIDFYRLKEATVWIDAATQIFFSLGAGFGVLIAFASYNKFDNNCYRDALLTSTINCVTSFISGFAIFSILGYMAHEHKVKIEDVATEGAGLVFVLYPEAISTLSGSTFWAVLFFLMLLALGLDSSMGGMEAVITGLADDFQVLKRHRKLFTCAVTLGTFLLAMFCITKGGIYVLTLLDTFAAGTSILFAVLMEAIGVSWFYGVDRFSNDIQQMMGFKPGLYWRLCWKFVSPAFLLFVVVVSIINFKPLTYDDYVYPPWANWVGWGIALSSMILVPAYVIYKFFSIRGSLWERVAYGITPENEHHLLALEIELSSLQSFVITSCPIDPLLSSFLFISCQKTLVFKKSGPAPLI
Sequence of Sodium-dependent serotonin transporter (P31652 whole entry): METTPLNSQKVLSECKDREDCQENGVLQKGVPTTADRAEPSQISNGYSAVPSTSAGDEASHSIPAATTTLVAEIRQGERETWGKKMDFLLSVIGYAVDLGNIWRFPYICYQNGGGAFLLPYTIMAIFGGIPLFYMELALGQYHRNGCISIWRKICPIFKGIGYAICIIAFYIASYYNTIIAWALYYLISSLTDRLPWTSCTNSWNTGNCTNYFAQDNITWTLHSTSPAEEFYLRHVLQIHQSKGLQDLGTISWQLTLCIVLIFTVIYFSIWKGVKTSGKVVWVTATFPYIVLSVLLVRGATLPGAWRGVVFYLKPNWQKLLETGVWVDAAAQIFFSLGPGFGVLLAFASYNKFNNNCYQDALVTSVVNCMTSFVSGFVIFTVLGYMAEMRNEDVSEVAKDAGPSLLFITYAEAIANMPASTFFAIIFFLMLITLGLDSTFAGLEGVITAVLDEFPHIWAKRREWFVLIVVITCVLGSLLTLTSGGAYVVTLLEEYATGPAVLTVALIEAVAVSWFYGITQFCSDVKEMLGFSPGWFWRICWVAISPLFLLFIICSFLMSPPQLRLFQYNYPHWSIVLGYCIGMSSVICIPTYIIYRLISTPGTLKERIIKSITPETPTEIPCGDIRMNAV

As a reminder, the Ki is the equilibrium dissociation constant of an inhibitor or competing ligand from its target. Low values mean higher affinity, high ones lower affinity. As for `COC(=O)C1C2CCC(CC1c1ccc(-c3ccco3)cc1)N2` (stereo not given), the Ki in experiment [1] came to 12.7 nM; in experiment [3], 0.15 nM; in experiment [4] it was 3.76 nM. Moreover, in experiment [2], the Ratio Ki was 25.

Regarding `COC(=O)C1C(c2ccc(-c3cccc(N(C)C)c3)cc2)CC2CCC1N2C` (stereo not given), the Ki was over 30000 nM in experiment [1], over 1000 nM in experiment [3] and 545 nM in experiment [4].

For the compound `COC(=O)C1C(c2ccc(-c3cncc(OC)c3)cc2)CC2CCC1N2C` (stereo not given), the Ki in experiment [1] amounted to 1590 nM; in experiment [3] it was 3.91 nM; in experiment [4], 587 nM. In addition, in experiment [2], the Ratio Ki worked out at 150.

As to `COC(=O)C1C(c2ccc(-c3cc(F)cc(F)c3)cc2)CC2CCC1N2C` (stereo not given), the Ki in experiment [1] turned out to be 109 nM; in experiment [3], 0.41 nM; in experiment [4], 31.7 nM. Besides, the Ratio Ki in experiment [2] amounted to 77; in experiment [5] it was 265.

The compound `COC(=O)C1C(c2ccc(-c3ccccn3)cc2)CC2CCC1N2C` (stereo not given) had a Ki in experiment [1] of over 10000 nM. Besides, in experiment [2], the Ratio Ki turned out to be 0.27.

Turning to `COC(=O)C1C(c2ccc(-c3cncnc3)cc2)CC2CCC1N2C` (stereo not given), in experiment [1], the Ki was over 10000 nM. For the same compound, the Ratio Ki in experiment [2] came to 110.

Take `COC(=O)C1C2CCC(CC1c1ccc(-c3cncc(OC)c3)cc1)N2` (stereo not given): the values for the Ki in experiment [1], in experiment [3] and in experiment [4] were 739 nM, 1.56 nM and 332 nM, respectively. Besides, the Ratio Ki in experiment [2] was determined as 212.

`COC(=O)C1C(c2ccc(-c3ccncc3)cc2)CC2CCC1N2C` (stereo not given): the Ki in experiment [1] was over 30000 nM; in experiment [3], over 1000 nM; in experiment [4], 1570 nM.

`COC(=O)C1C(c2ccc(-c3cnc4ccccc4c3)cc2)CC2CCC1N2C` (stereo not given) yielded a Ki in experiment [1] of over 30000 nM. Besides, the Ratio Ki in experiment [2] turned out to be 3.

With `COC(=O)C1C2CCC(CC1c1ccc(-c3nccs3)cc1)N2` (stereo not given), the values for the Ki in experiment [1], in experiment [3] and in experiment [4] were 213 nM, 5.15 nM and 69.6 nM, respectively. In addition, the Ratio Ki in experiment [2] was determined as 13.

In the case of `COC(=O)C1C(c2ccc(-c3cccc(F)c3)cc2)CC2CCC1N2C` (stereo not given), the figures for the Ki in experiment [1], in experiment [3] and in experiment [4] were 249 nM, 0.5 nM and 25.2 nM, respectively. Also, the Ratio Ki in experiment [2] stood at 50; in experiment [5], 498.

As to `COC(=O)C1C(c2ccc(-c3cnccn3)cc2)CC2CCC1N2C` (stereo not given), the results for the Ki in experiment [1], in experiment [3] and in experiment [4] were 213 nM, 11.3 nM and 121 nM, respectively. In experiment [2], the Ratio Ki is 10.

For `COC(=O)C1C(c2ccc(-c3ccco3)cc2)CC2CCC1N2C` (stereo not given), in experiment [1], the Ki came out at 1400 nM. For the same compound, the Ratio Ki in experiment [2] was 6.

On to `COC(=O)C1C(c2ccc(-c3cccnc3)cc2)CC2CCC1N2C` (stereo not given), for which the inhibition constant (Ki) is 1410 nM in experiment [1] and 26.1 nM in experiment [4]. In addition, in experiment [2], the Ratio Ki is 7.

As for `COC(=O)C1C(c2ccc(-c3nccs3)cc2)CC2CCC1N2C` (stereo not given), the inhibitory constant (Ki) in experiment [1] was over 10000 nM; in experiment [3], 1.67 nM; in experiment [4], 520 nM. For the same compound, the Ratio Ki in experiment [2] worked out at 311.

With `COC(=O)C1C(c2ccc(-c3ccoc3)cc2)CC2CCC1N2C` (stereo not given), the Ki in experiment [1] came to 127 nM; in experiment [3], 0.35 nM; in experiment [4], 14.2 nM. Moreover, the Ratio Ki in experiment [2] was 40.
